ChEMBL document CHEMBL1138765, “Design, synthesis, and biological evaluation of biotin conjugates of 2-cyano-3,12-dioxooleana-1,9(11)-dien-28-oic acid for the isolation of the protein targets” (J Med Chem, 2004)

Test system: MCF7
Assay: Inhibitory concentration against proliferation of MCF-7 (ER Positive) breast cancer cells
Type: functional, cell-based
Conditions: Homo sapiens

In order of falling IC50:
1. CC1(C)CC[C@]2(C(=O)NCCCC(=O)NCCCCCCNC(=O)CCCCC3SC[C@@H]4NC(=O)N[C@H]34)CC[C@]3(C)C(C(=O)C=C4[C@@]5(C)C=C(C#N)C(=O)C(C)(C)[C@@H]5CC[C@]43C)C2C1 (stereo partly specified)  5260 nM
2. CC1(C)CC[C@]2(C(=O)NCCCCCCNC(=O)CCCCC3SC[C@@H]4NC(=O)N[C@H]34)CC[C@]3(C)C(C(=O)C=C4[C@@]5(C)C=C(C#N)C(=O)C(C)(C)[C@@H]5CC[C@]43C)C2C1 (stereo partly specified)  3310 nM
3. COC(=O)[C@]12CCC(C)(C)CC1C1C(=O)C=C3[C@@]4(C)C=C(C#N)C(=O)[C@@](C)(COC(=O)CCCCCNC(=O)CCCC[C@@H]5SC[C@@H]6NC(=O)N[C@@H]65)[C@@H]4CC[C@@]3(C)[C@]1(C)CC2 (stereo partly specified)  550 nM
4. CC1(C)CC[C@]2(C(=O)O)CC[C@]3(C)[C@H](C(=O)C=C4[C@@]5(C)C=C(C#N)C(=O)C(C)(C)[C@@H]5CC[C@]43C)[C@@H]2C1 [BARDOXOLONE]  160 nM
5. COC(=O)[C@]12CCC(C)(C)CC1C1C(=O)C=C3[C@@]4(C)C=C(C#N)C(=O)[C@@](C)(CO)[C@@H]4CC[C@@]3(C)[C@]1(C)CC2 (stereo partly specified)  80 nM
6. COC(=O)[C@]12CCC(C)(C)C[C@H]1[C@H]1C(=O)C=C3[C@@]4(C)C=C(C#N)C(=O)C(C)(C)[C@@H]4CC[C@@]3(C)[C@]1(C)CC2 [BARDOXOLONE METHYL]  50 nM
